The test system of this assay is colorectal cancer cell line WiDr. The experiment in a line: In vitro survival assay (MTT) for anti-colorectal cancer effects. The assay is classed as cell-based. As to conditions: WiDr human colon adenocarcinoma cells, 48 hours treatment, survival rate. The protocol:
Inhibiting effects of colorectal cancer cells by cyclohexenone compounds of Antrodia camphorata from example 1 were assessed according to the anticancer-drug screening model of National Cancer Institute (NCI). The compound 4-hydroxy-2,3-dimethoxy-6-methyl-5-(3,7,11-trimethyl-dodeca-2,6,10-trienyl)-cyclohex-2-enone from example 1 was added into the culture media of colorectal cancer cell line WiDr to determine the survival rates. Survival of cell was analyzed using MTT assay. WiDr cell line was a human colon adenocarcinoma cell line.
MTT assay is commonly used to analyze cell proliferation, survival rate of viable cells and cytotoxicity. MTT (3[4,5-dimethylthiazol-2-yl]-2,5-diphenyltetrazolium bromide) is a yellow dye which can be converted to water-insoluble purple formazan on the reductive cleavage of its tetrazolium ring by the succinate tetrazolium reductase in mitochondria of cells. The amount of formazan produced is used to detect the number of viable cells and calculate the survival rates.
The WiDr cells were cultivated in RPMI 1640 medium supplemented with 10% fetal bovine serum, 100 IU/ml of Penicillin and […] of Streptomycin at 37° C., 5% CO2 for 24 hours. Proliferated cells were washed once with PBS, treated with 1× trypsin-EDTA, and centrifuged at 1200 rpm for 5 min. […] The absorbances were measured at 570 nm with an ELISA Reader to determine the survival rates.

This note sets out measurements from patent US20110059123A1, “Inhibition of the Survival of Colorectal Cancer by Cyclohexenone Compounds from Antrodia Camphorata” (GOLDEN BIOTECHNOLOGY CORPORATION, priority 2009, published 2011).

`COC1=C(OC)C(O)C(C/C=C(\C)CC/C=C(\C)CCC=C(C)C)C(C)C1=O` (stereo not shown) [formula 2, 4-hydroxy-2,3-dimethoxy-6-methyl-5-(3,7,11-trimethyl-dodeca-2,6,10-trienyl)-cyclohex-2-enone]: the half-maximal inhibitory concentration (IC50) stood at 0.92 µg/mL.
